In US7317007B2, “Benzothiazole derivatives with activity as adenosine receptor ligands” (Hoffmann-La Roche Inc., priority 2000, dated 2008):

How the values were obtained:
[1] = target: T1, human adenosine A2A receptor (Homo sapiens, UniProt P29274); assay: [3H]-SCH-58261 binding assay at the human adenosine A2A receptor; conditions: read-out: pKi value (converted)
T1 construct: expressed in transfected cells; host or cells: CHO cells, Semliki Forest virus expression system; washed membrane pellet used
T1 sequence (P29274 whole entry): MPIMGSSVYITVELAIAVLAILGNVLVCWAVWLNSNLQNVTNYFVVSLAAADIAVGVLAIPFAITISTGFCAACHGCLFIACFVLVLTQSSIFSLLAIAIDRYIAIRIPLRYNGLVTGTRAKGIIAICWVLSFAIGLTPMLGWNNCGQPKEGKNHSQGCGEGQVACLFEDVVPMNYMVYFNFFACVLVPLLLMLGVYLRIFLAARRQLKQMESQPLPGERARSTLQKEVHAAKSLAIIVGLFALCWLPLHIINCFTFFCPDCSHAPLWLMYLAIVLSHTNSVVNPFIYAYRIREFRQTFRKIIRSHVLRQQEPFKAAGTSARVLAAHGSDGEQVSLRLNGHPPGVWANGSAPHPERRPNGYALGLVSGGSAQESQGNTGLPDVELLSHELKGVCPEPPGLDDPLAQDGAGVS
Protocol: Human Adenosine A2A Receptor
The human adenosine A2A receptor was recombinantly expressed in chinese hamster ovary (CHO) cells using the semliki forest virus expression system. Cells were harvested, washed twice by centrifugation, homogenised and again washed by centrifugation. The final washed membrane pellet was suspended in a Tris (50 mM) buffer containing 120 mM NaCl, 5 mM KCl, 2 mM CaCl2 and 10 mM MgCl2 (pH 7.4) (buffer A). The [^3H]-SCH-58261 (Dionisotti et al., 1997, Br J Pharmacol 121, 353; 1 nM) binding assay was carried out in 96-well plates in the presence of 2.5 μg of membrane protein, 0.5 mg of Ysi-poly-1-lysine SPA beads and 0.1 U adenosine deaminase in a final volume of 200 μl of buffer A. Non-specific binding was defined using xanthine amine congener (XAC; 2 μM). Compounds were tested at 10 concentrations from 10 μM-0.3 nM. All assays were conducted in duplicate and repeated at least two times. Assay plates were incubated for 1 hour at room temperature before centrifugation and then bound ligand determined using a Packard Topcount scintillation counter. IC50 values were calculated using a non-linear curve fitting program and Ki values calculated using the Cheng-Prussoff equation.

Ki [1]: 3.16 nM
melting point: 58 to 78 °C
SMILES: COCCN(C)Cc1ccc(C(=O)Nc2nc3c(OC)ccc(-c4cccs4)c3s2)cc1 [Example 240, 4-{[(2-Methoxy-ethyl)-methyl-amino]-methyl}-N-(4-methoxy-7-thiophen-2-yl-benzothiazol-2-yl)-benzamide]
